Values joined by “and” are separate entries in the source; they are usually repeats but may differ in a detail not shown here. Identical values can stand only once. Toxic doses and inconclusive results are not listed. Rule as the data show it: active = T/C of 150% or more; inactive = T/C below 125%.
System: L1210 leukemia ip in BDF1 mice, survival T/C
Assay: NCI In Vivo Anticancer Drug Screen. Data for tumor model L1210 Leukemia (intraperitoneal) in B6D2F1 (BDF1) mice
Settings: endpoint: mean survival time, higher = longer survival
How it was run: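 Antitumor effect is assessed in tumor-bearing animals. Survival in the compound arm is compared with a vehicle-dosed control arm and expressed as their quotient.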

[1] = dose: 100.0 mg/kg/injection, schedule: Q04DX002 (ip), vehicle: saline with Tween-80
[2] = dose: 200.0 mg/kg/injection, schedule: Q04DX002 (ip), vehicle: saline with Tween-80
[3] = dose: 400.0 mg/kg/injection, schedule: Q04DX002 (ip), vehicle: saline with Tween-80
[4] = dose: 100.0 mg/kg/injection, schedule: Q04DX003 (ip), vehicle: other
[5] = dose: 200.0 mg/kg/injection, schedule: Q04DX003 (ip), vehicle: other
[6] = dose: 100.0 mg/kg/injection, schedule: Q01DX009 (ip), vehicle: Klucel (hydroxypropylcellulose) (HPC)
[7] = dose: 200.0 mg/kg/injection, schedule: Q01DX009 (ip), vehicle: Klucel (hydroxypropylcellulose) (HPC)
[8] = dose: 50.0 mg/kg/injection, schedule: Q01DX001 (ip), vehicle: saline
[9] = dose: 100.0 mg/kg/injection, schedule: Q01DX001 (ip), vehicle: saline
[10] = dose: 200.0 mg/kg/injection, schedule: Q01DX001 (ip), vehicle: saline
[11] = dose: 400.0 mg/kg/injection, schedule: Q01DX009 (ip), vehicle: Klucel (hydroxypropylcellulose) (HPC)
[12] = dose: 100.0 mg/kg/injection, schedule: Q04DX003 (ip), vehicle: Klucel (hydroxypropylcellulose) (HPC)
[13] = dose: 200.0 mg/kg/injection, schedule: Q04DX003 (ip), vehicle: Klucel (hydroxypropylcellulose) (HPC)
[14] = dose: 400.0 mg/kg/injection, schedule: Q04DX003 (ip), vehicle: Klucel (hydroxypropylcellulose) (HPC)
[15] = dose: 400.0 mg/kg/injection, schedule: Q01DX001 (ip), vehicle: saline
[16] = dose: 100.0 mg/kg/injection, schedule: Q04DX002 (ip), vehicle: Klucel (hydroxypropylcellulose) (HPC)
[17] = dose: 200.0 mg/kg/injection, schedule: Q04DX002 (ip), vehicle: Klucel (hydroxypropylcellulose) (HPC)
[18] = dose: 400.0 mg/kg/injection, schedule: Q04DX002 (ip), vehicle: Klucel (hydroxypropylcellulose) (HPC)

Measured: T/C

CC(C)(C)c1cc(NS(=O)(=O)c2ccccc2)c(N=[N+]=[N-])c(Cl)c1NS(=O)(=O)c1ccccc1
inactive: [1] 102 % of control | [2] 91 % of control | [3] 102 % of control

O=C(/C=C/c1cccc(Br)c1)c1ccc(Cl)cc1
inactive: dose: 50.0 mg/kg/injection, schedule: Q01DX009 (ip), vehicle: other 107 % of control | dose: 100.0 mg/kg/injection, schedule: Q01DX009 (ip), vehicle: other 92 % of control | [4] 89 % of control | dose: 200.0 mg/kg/injection, schedule: Q01DX009 (ip), vehicle: other 96 % of control | [5] 100 % of control

O=C1C(N2CC2)=C(N2CC2)C(=O)C(N2CC2)=C1N1CC1
inactive: dose: 0.12 mg/kg/injection, schedule: Q01DX001 (ip), vehicle: saline 112 % of control

CC(C)(C)P1(=O)OCC(c2ccccc2)CO1 (centres undefined)
inactive: [4] 101 % of control | [5] 107 % of control

CC1(c2ccc(Cl)cc2)NC(=O)NC1=O (centres undefined)
inactive: dose: 50.0 mg/kg/injection, schedule: Q01DX009 (ip), vehicle: Klucel (hydroxypropylcellulose) (HPC) 97 % of control | [6] 101 % of control | [7] 94 % of control

C=C1C(=O)OC2/C=C(\C)CC/C=C(\C)CC(OC(C)=O)C12 (centres undefined)
inactive: [8] 96 % of control | [9] 96 % of control | [10] 107 % of control

O=C(c1ccccc1)C1OC1(CBr)c1ccccc1 (centres undefined)
inactive: dose: 6.25 mg/kg/injection, schedule: Q01DX009 (ip), vehicle: alcohol 96 % of control | dose: 12.5 mg/kg/injection, schedule: Q01DX009 (ip), vehicle: alcohol 95 % of control | dose: 25.0 mg/kg/injection, schedule: Q01DX009 (ip), vehicle: alcohol 98 % of control | dose: 100.0 mg/kg/injection, schedule: Q01DX001 (ip), vehicle: Klucel (hydroxypropylcellulose) (HPC) 100 % of control | [6] 106 % of control | dose: 200.0 mg/kg/injection, schedule: Q01DX001 (ip), vehicle: Klucel (hydroxypropylcellulose) (HPC) 105 % of control | [7] 98 % of control | dose: 400.0 mg/kg/injection, schedule: Q01DX001 (ip), vehicle: Klucel (hydroxypropylcellulose) (HPC) 106 % of control | [11] 96 % of control

CNC(=O)Nc1ccc(OC)cc1
inactive: [6] 96 % of control | [12] 110 % of control | [7] 100 % of control | [13] 107 % of control | [11] 102 % of control | [14] 105 % of control

CC12OC(c3ccccc3)(C3=C1C1CCC(C1)C3(C)C)c1ccccc12 (centres undefined)
inactive: dose: 50.0 mg/kg/injection, schedule: Q01DX009 (ip), vehicle: saline 89 % of control | [9] 103 % of control | [10] 100 % of control | [15] 112 % of control

S=C(N/N=C/c1ccc2c(c1)CCC2)Nc1ccccc1
inactive: [12] 103 % of control | [13] 92 % of control | [14] 100 % of control

O=[N+]([O-])c1cccc(S(=O)(=O)NNc2c(Cl)cc(Cl)cc2Cl)c1
inactive: [12] 94 % of control | [13] 93 % of control | [14] 96 % of control

CCCc1nc2ccccc2c(=O)n1/N=C/c1ccccc1O
inactive: [6] 97 % of control | [7] 102 % of control | [11] 103 % of control

CCOC(=O)c1cc([N+](=O)[O-])ccc1N=Nc1cc(OC)c(N)cc1OC
inactive: dose: 100.0 mg/kg/injection, schedule: Q01DX001 (ip), vehicle: other 111 % of control | dose: 200.0 mg/kg/injection, schedule: Q01DX001 (ip), vehicle: other 103 % of control | dose: 400.0 mg/kg/injection, schedule: Q01DX001 (ip), vehicle: other 103 % of control

CSCCc1ccccn1
inactive: [8] 98 % of control | [9] 104 % of control | [10] 98 % of control | [15] 110 % of control

CC(C)(O)/C=C/C(=O)[C@](C)(O)[C@H]1[C@H](O)C[C@@]2(C)[C@@H]3CC=C4[C@@H](C=C(O)C(=O)C4(C)C)[C@]3(C)C(=O)C[C@]12C
inactive: dose: 100.0 micrograms/kg/injection, schedule: Q01DX001 (sc), vehicle: steriod suspending solution 104 % of control | dose: 200.0 micrograms/kg/injection, schedule: Q01DX001 (sc), vehicle: steriod suspending solution 102 % of control | dose: 400.0 micrograms/kg/injection, schedule: Q01DX001 (sc), vehicle: steriod suspending solution 104 % of control | dose: 800.0 micrograms/kg/injection, schedule: Q01DX001 (sc), vehicle: steriod suspending solution 96 % of control

Nc1ccc(O)c2c1C(=O)c1ccccc1C2=O
inactive: [6] 103 % of control | [16] 104 % of control | [7] 92 % of control | [17] 115 % of control | [11] 96 % of control | [18] 100 % of control

O=NN(CCCl)C(=O)Nc1cc(Cl)ccc1O
inactive: dose: 1.0 mg/kg/injection, schedule: Q01DX001 (ip), vehicle: carboxymethylcellulose (CMC) 116 % of control | dose: 2.0 mg/kg/injection, schedule: Q01DX001 (ip), vehicle: carboxymethylcellulose (CMC) 110 % of control | dose: 4.0 mg/kg/injection, schedule: Q01DX001 (ip), vehicle: carboxymethylcellulose (CMC) 116 % of control | dose: 44.0 mg/kg/injection, schedule: Q01DX009 (ip), vehicle: carboxymethylcellulose (CMC) 100 % of control | dose: 66.0 mg/kg/injection, schedule: Q01DX001 (ip), vehicle: carboxymethylcellulose (CMC) 111 % of control | dose: 66.0 mg/kg/injection, schedule: Q01DX009 (ip), vehicle: carboxymethylcellulose (CMC) 90 % of control | dose: 100.0 mg/kg/injection, schedule: Q01DX001 (ip), vehicle: carboxymethylcellulose (CMC) 114 % of control | dose: 100.0 mg/kg/injection, schedule: Q01DX009 (ip), vehicle: carboxymethylcellulose (CMC) 95 % of control | dose: 150.0 mg/kg/injection, schedule: Q01DX001 (ip), vehicle: carboxymethylcellulose (CMC) 111 % of control | dose: 200.0 mg/kg/injection, schedule: Q01DX001 (ip), vehicle: carboxymethylcellulose (CMC) 115 % of control | dose: 225.0 mg/kg/injection, schedule: Q01DX001 (ip), vehicle: carboxymethylcellulose (CMC) 123 % of control | dose: 400.0 mg/kg/injection, schedule: Q01DX001 (ip), vehicle: carboxymethylcellulose (CMC) 116 % of control | dose: 800.0 mg/kg/injection, schedule: Q01DX001 (ip), vehicle: carboxymethylcellulose (CMC) 118 % of control

CC1(C)OC2OC(C(O)c3cn(-c4ccccc4)nn3)C(O)C2O1 (centres undefined)
inactive: [1] 97 % of control | [2] 93 % of control | [3] 110 % of control

CCNC(=O)Nc1ccccc1
inactive: [16] 93 % of control | [17] 96 % of control

CCOC(=O)c1ccc(NC(=O)Oc2ccc(-c3ccccc3)cc2)cc1
inactive: dose: 100.0 mg/kg/injection, schedule: Q01DX001 (ip), vehicle: saline with Tween-80 96 % of control | dose: 100.0 mg/kg/injection, schedule: Q01DX009 (ip), vehicle: saline with Tween-80 97 % of control and 102 % of control | [1] 94 % of control and 100 % of control | dose: 200.0 mg/kg/injection, schedule: Q01DX001 (ip), vehicle: saline with Tween-80 88 % of control | dose: 200.0 mg/kg/injection, schedule: Q01DX009 (ip), vehicle: saline with Tween-80 92 % of control and 97 % of control | [2] 101 % of control and 88 % of control | dose: 400.0 mg/kg/injection, schedule: Q01DX001 (ip), vehicle: saline with Tween-80 96 % of control | dose: 400.0 mg/kg/injection, schedule: Q01DX009 (ip), vehicle: saline with Tween-80 93 % of control and 100 % of control | [3] 97 % of control

CC(C)(C)CC(CC(C)(C)C)C(=O)O
inactive: dose: 106.0 mg/kg/injection, schedule: Q01DX Z (ip), vehicle: other 94 % of control | dose: 160.0 mg/kg/injection, schedule: Q01DX Z (ip), vehicle: other 102 % of control | dose: 240.0 mg/kg/injection, schedule: Q01DX Z (ip), vehicle: other 96 % of control and 103 % of control | dose: 360.0 mg/kg/injection, schedule: Q01DX Z (ip), vehicle: other 101 % of control and 89 % of control | dose: 540.0 mg/kg/injection, schedule: Q01DX Z (ip), vehicle: other 86 % of control

COc1cc(C(=O)Nc2ccccc2SC)cc(OC)c1OC
inactive: [16] 100 % of control | [17] 97 % of control | [18] 90 % of control

Fc1ccc(Cc2nnc(Cc3ccc(F)cc3)nn2)cc1
inactive: [16] 105 % of control | [17] 102 % of control

— PubChem BioAssay AID248 (DTP/NCI, 2004)
